# Patent US10258600B2, “Aryl hydrocarbon receptor (AhR) modifiers as novel cancer therapeutics” (Trustees of Boston University, priority 2010, dated 2019)
# Entries after “also recorded” stand apart in the source; their conditions may differ.
# Columns and labels:
# [1] = test system: BP1 cells; assay: Tumor invasion in Matrigel, BP1; assay type: cell-based, human; details: 5 uM, 5 days
# Protocol: (§1) BP1 cells were cultured in the presence of vehicle (left) or 5 uM CB7993113 in Matrigel for 5 days. CB7993113 is not toxic at the highest doses tested, 10 uM.
# BP1 cells were cultured in Matrigel in the presence of vehicle, 5 μM DIM (16A), vehicle or 5 uM CB7950998 (16B) for 5 days.
# [2] = test system: BP1 and MCF-10F cells; assay: 3H-thymidine incorporation cell growth; assay type: cell-based, human; details: 18 hrs
# [3] = test system: Hs578T cells; assay: Tumor invasion in Boyden Chambers; assay type: cell-based, human; details: 10^−5M, 2 days
# Protocol: (§2) Hs578T cells were cultured in Boyden Chambers (FIG. 7A) or in Matrigel (FIG. 7B) in the presence of DMSO, 10^−5M CMLD-2166, CMLD-2186 (a 2166 enantiomer) or CH223191 and assayed for invasion 2 (Boyden Chambers) or 7 (Matrigel) days later.
# [4] = test system: Hs578T cells; assay: Tumor invasion in Matrigel, Hs578T; assay type: cell-based, human; details: 10^−5M, 7 days
# Protocol: as §2
# [5] = test system: bone marrow hematopoietic cells; assay: DMBA-induced bone marrow toxicity in mice; assay type: in vivo, C57BL/6 mice; details: 48 hours; for DMBA-induced decrease in total number of bone marrow cells: 50 mg/kg i.p., 50 mg/kg DMBA; for DMBA-induced decrease in pro B cells, pre-B cells and neutrophils: co-administration with 50 mg/kg DMBA
# Protocol: To test the ability of one of the lead compounds described herein, CB7993113, to be absorbed and to function effectively in vivo, C57BL/6 mice were treated with an acutely toxic dose (50 mg/kg) of DMBA, a potent AhR agonist, in the presence or absence of CB7993113 or another AhR inhibitor, CH223191. […] This decrease in the total number of bone marrow cells was prevented by the i.p. injection of 50 mg/kg CH223191 or CB7993113.
# Mice then were injected with 50 mg/kg DMBA. Mice were sacrificed 48 hours later. Bone marrow hematopoietic cells were expunged from the bone and viable cells counted. Data are presented as the average number of viable white blood cells+SE. **p<0.01, ***P<0.001, student's t-test. […] C57BL/6 mice (6/group) were treated as in FIG. 8A. The percentage and number of viable bone marrow pro B cells, pre B cells, and neutrophils were determined 48 hours later by flow cytometry. Data are presented as the average number of viable cells of each subtype+SE. (*p<0.05, **P<0.01, student's t-test).
# [6] = molecular target: T1, PPARγ (Homo sapiens, UniProt P37231); assay: PPARγ-driven luciferase reporter in Cos 7 cells; assay type: cell-based; details: rosiglitazone 1 μM, 18-24 hrs
# T1 construct: expressed in transfected cells; host or cells: Cos 7 cells
# T1 sequence (P37231 1-505): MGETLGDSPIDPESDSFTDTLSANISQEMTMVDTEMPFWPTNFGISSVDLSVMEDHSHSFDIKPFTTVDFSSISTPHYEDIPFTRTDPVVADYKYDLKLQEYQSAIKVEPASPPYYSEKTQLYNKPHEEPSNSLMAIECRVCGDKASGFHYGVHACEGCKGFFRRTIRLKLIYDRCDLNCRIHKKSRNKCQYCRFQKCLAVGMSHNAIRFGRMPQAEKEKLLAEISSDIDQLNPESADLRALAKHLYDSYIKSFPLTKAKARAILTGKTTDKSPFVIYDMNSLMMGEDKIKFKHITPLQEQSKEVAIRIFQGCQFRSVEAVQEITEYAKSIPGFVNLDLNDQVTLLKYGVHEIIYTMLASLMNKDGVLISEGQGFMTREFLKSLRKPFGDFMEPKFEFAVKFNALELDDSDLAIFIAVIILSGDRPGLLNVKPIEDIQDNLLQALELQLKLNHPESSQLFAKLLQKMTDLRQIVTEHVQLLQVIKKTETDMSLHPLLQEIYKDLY
# T1 sequence (P19793 1-462 partner): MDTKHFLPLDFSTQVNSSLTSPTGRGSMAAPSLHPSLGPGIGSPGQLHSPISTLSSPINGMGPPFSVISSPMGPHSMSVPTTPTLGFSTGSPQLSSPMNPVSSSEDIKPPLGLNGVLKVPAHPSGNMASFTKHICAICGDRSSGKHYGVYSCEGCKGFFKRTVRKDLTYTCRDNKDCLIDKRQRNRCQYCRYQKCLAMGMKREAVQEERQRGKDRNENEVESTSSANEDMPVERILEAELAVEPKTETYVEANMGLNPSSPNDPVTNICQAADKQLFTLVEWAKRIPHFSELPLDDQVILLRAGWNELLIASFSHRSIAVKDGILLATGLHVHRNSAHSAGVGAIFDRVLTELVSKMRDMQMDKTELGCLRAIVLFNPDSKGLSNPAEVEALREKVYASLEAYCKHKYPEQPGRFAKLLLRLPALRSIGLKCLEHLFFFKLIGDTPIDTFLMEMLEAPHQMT
# Protocol: Cos 7 cells were transfected with the peroxisome proliferator activator receptor-γ (PPARγ), its dimerization partner, RXR, a PPARγ-driven luciferase reporter construct, and a control CMV-driven GFP reporter for 24 hours. Cells then were treated with a vehicle, 10 μM AhR inhibitor CH223191, 50 μM AhR inhibitor CMLD-2166, or 10 μM AhR inhibitor CB7993113. (These represent high AhR inhibitor doses). Rosiglitazone (1 μM), a strong PPARγ agonist, was added 1 hour later and cells assayed 18-24 hrs thereafter for PPARγ-driven reporter activity (luciferase intensity), normalized to the GFP signal. Data were pooled from 4 experiments. Unlike their ability to block AhR-driven reporter activity, the AhR inhibitors had no effect on the PPARγ-driven reporter activity.
# [7] = molecular target: T2, AhR (Mus musculus, UniProt P30561); assay: High throughput AhR-driven GFP reporter bioassay in H1G1 cells; assay type: cell-based; set-up: H1G1 cells expressing an AhR-driven GFP reporter construct; endogenous in cells; host or cells: H1G1 cells; details: titered in presence of 1 μM BNF; read-out: AhR Antagonists IC50
# T2 sequence (P30561 10-805 limits assumed): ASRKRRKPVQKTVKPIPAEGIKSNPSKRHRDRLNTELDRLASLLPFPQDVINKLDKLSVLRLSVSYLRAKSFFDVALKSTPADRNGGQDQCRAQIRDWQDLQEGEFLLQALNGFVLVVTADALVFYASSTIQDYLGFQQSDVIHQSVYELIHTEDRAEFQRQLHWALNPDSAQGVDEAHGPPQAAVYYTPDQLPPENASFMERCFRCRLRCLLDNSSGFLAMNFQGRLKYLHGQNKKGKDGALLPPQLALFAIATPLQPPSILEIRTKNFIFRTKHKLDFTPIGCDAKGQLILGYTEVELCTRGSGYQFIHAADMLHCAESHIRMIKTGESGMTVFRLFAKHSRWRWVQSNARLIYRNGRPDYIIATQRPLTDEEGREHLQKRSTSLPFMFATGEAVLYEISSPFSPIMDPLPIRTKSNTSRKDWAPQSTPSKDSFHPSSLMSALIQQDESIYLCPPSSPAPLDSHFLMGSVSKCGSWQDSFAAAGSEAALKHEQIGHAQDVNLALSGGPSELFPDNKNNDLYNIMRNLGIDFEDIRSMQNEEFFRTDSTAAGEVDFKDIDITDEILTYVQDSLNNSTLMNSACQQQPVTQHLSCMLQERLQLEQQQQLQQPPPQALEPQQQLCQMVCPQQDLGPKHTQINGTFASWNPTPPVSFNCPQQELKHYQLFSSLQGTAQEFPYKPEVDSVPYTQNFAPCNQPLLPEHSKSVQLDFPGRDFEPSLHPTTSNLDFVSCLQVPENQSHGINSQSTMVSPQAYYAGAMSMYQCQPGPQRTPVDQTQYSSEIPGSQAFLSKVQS
# T2 sequence (P11499 whole entry partner): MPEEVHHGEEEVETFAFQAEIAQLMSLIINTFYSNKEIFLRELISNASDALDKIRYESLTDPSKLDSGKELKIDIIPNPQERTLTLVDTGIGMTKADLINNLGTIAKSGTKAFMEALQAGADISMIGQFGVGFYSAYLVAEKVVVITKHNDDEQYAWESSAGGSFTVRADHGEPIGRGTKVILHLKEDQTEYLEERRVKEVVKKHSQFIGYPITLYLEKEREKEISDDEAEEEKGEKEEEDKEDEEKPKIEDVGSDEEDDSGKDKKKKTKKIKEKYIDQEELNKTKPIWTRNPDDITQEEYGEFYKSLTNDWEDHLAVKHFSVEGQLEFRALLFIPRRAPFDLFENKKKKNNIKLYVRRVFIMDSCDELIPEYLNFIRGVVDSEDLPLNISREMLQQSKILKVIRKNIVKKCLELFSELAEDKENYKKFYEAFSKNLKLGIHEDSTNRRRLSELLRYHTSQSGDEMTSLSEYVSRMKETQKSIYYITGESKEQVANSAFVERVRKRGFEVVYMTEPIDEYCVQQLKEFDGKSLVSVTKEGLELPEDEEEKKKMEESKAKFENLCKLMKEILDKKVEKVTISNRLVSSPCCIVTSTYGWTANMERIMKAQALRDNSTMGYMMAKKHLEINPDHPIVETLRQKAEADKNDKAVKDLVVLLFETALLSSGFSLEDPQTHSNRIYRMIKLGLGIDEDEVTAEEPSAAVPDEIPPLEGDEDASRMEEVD
# T2 sequence (O08915 whole entry partner): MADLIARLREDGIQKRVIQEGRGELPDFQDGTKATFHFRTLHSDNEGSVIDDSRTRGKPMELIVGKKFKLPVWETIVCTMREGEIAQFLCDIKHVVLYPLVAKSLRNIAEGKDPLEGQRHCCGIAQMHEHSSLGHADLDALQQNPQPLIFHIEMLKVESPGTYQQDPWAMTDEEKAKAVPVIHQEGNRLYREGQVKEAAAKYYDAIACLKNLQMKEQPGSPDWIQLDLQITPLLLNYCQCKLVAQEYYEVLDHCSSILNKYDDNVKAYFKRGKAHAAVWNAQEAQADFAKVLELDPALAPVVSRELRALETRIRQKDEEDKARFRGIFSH
# Protocol: Using a high throughput reporter-based AhR bioassay and cell viability assay, over 4000 CMLD compounds, FDA drugs, and NCI-generated extracts were screened, and 8 non-toxic AhR inhibitors (2 from the CMLD) and 19 AhR agonists (14 from the CMLD) were identified (as shown in, e.g., FIGS. 4A-4B). IC50 values for inhibitors and EC50 values for agonists were determined (Table 1). One of these discovered inhibitors (CMLD-2166), its enantiomer (CMLD-2186), and a previously described lipid soluble AhR inhibitor (CH223191) blocked tumor growth and invasion (FIGS. 5A-5B and 7A-7B).
# FIGS. 4A-4B show high-throughput screening (HTS) for AhR agonists and antagonists. […] A dark circle identifies an AhR inhibitor while the light circle indicates an agonist. […] Over 4,000 compounds were screened in this semi-automated assay.
# [8] = molecular target: T3, AhR (Homo sapiens, UniProt P35869); assay: AhR-responsive pGudLuc reporter, constitutive AhR activity; assay type: cell-based; set-up: malignant BP1 and immortalized MCF-10F cells that were transiently transfected with AhR-responsive pGudLuc; endogenous in cells; host or cells: BP1 and MCF-10F cells; details: BP1 and MCF-10F cells, 24 hrs
# T3 sequence (P35869 11-848): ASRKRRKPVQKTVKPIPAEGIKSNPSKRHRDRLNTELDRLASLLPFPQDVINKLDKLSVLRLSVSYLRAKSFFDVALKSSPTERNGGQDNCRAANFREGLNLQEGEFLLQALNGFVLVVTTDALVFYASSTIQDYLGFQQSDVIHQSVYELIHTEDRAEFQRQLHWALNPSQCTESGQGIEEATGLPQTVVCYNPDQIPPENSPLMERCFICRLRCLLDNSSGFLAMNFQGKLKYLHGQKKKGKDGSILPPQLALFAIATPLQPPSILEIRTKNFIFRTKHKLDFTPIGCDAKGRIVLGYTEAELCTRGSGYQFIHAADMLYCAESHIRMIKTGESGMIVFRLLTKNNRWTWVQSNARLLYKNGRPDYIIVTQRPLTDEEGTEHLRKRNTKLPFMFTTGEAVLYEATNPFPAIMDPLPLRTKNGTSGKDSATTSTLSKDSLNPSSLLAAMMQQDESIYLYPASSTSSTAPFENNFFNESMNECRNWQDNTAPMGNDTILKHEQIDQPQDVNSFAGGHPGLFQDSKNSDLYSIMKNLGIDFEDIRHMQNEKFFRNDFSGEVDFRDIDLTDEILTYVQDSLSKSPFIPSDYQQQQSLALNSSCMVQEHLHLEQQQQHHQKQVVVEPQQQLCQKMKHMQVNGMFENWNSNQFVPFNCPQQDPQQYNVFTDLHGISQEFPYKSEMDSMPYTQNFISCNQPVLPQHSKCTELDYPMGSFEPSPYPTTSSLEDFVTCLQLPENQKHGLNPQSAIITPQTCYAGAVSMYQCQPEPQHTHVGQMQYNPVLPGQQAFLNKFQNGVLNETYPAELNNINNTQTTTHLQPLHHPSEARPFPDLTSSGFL
# [9] = test system: BP1 cells; assay: Toxicity of CB7993113 at highest doses tested; assay type: cell-based, human; details: 10 uM
# Protocol: as §1
# [10] = molecular target: T3, AhR; assay: Radiolabeled TCDD displacement from in vitro translated AhR, sucrose gradient; assay type: binding; set-up: made in house; details: fractions 13-16 of sucrose gradient
# Source text: The compounds CMLD-2166 and CB7993113 were mixed with in vitro translated human AhR and radiolabeled TCDD (dioxin), a high affinity AhR ligand. Complexes then were separated on a sucrose gradient and fractions assayed for radioactivity. A decrease in the signal (displacement of radiolabeled TCDD) can be seen in fractions 13-16 indicating binding of the test compound to the AhR and displacement of TCDD.
# [11] = molecular target: T2, AhR; assay: AhR nuclear translocation, western immunoblot of Hepa-1 nuclear and cytoplasmic extracts; assay type: cell-based; set-up: endogenous in cells; details: Hepa-1 cells
# Protocol: To determine whether the inhibitory action of CB7993113 involves binding to the AhR and blocking its translocation to the nucleus, Hepa-1 cells were treated with 1-10 uM CB7993113. One hour later they were challenged with a strong AhR agonist and prototypic PAH, DMBA (1 uM). After a 30 minute incubation period, cells were harvested and extracts from cell nuclei and cytoplasm were obtained. These extracts then were probed for levels of AhR and, as a loading control, β-actin, by western immunoblotting.
# Hepa-1 cells were treated with vehicle or 1-10 μM CH223191. One hour later cells were treated with 0.1 μM DMBA (where indicated) and incubated for 30 minutes. Cells were harvested and proteins from the cytoplasm and nuclei were extracted. Extracted proteins were subjected to AhR- or, as loading control, β-actin-specific western immunoblots. Data are representative of 3 independent experiments.
binding to AhR (displacement of radiolabeled TCDD) [10],SMILES,BP1 tumor invasion in Matrigel [1],cell growth (3H-thymidine incorporation) [2],"tumor invasion, Boyden Chambers [3]","tumor invasion, Matrigel [4]",DMBA-induced decrease in total number of bone marrow cells [5],"DMBA-induced decrease in pro B cells, pre-B cells and neutrophils [5]",PPARγ-driven reporter activity ([6]; 10 μM),IC50 [7],constitutive AhR activity (pGudLuc activity) [8],also measured
,"c1ccc2c(Cc3c[nH]c4ccccc34)c[nH]c2c1 [DIM, 3,3′-diindolylmethane, reference compound]",reduce,,,,,,,,,
,"Cc1ccccc1N=Nc1ccc(NC(=O)c2ccnn2C)c(C)c1 [CH223191, reference compound]",,blocked; also recorded: inhibit,inhibit tumor invasion,inhibit tumor invasion,prevented,completely blocked,no effect,0.33 µM,inhibit,
bind human AhR,NC(=O)COc1c(-c2ccc(Br)o2)oc2ccccc2c1=O [CB7993113],blocks,,,,prevented,completely blocked,no effect,,,"toxicity [9]: not toxic; DMBA-induced AhR translocation to the nucleus ([11]; 1-10 uM, 1 h before DMBA, 30 min): completely blocked; translocation of the AhR to the nucleus, inhibitor alone (agonist activity) ([11]; no DMBA): no effect"
bind human AhR,COc1ccc2c(c1)C(=O)[C@H](OC(=O)NS(=O)(=O)c1ccc(C)cc1)[C@@H](c1ccc(OC)c(Br)c1)O2 [CMLD-2166],,blocked,inhibit tumor invasion,inhibit tumor invasion,,,,0.2 µM,inhibit,cell growth (3H-thymidine incorporation) ([2]; listed as CMLD 2166): inhibit; PPARγ-driven reporter activity ([6]; 50 μM): no effect
,CCOC(=O)Oc1c(-c2ccc(Cl)cc2)oc2ccccc2c1=O [CB7950998],reduce,,,,,,,,,
